Molecular target: T1, Neutrophil elastase (Homo sapiens, UniProt P08246)
T1 sequence (P08246 whole entry): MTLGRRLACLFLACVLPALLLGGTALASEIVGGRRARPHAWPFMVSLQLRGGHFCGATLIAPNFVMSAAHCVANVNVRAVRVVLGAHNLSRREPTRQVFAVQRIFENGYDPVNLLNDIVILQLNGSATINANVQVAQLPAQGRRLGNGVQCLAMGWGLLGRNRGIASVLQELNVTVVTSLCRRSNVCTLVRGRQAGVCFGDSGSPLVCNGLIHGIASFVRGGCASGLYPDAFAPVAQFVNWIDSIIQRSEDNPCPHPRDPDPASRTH
Test: Elastase Activity Assay
From the text: The elastase inhibitor activity was examined using N-succinyl-Ala-Ala-Ala-pnitroanilide (STANA) as the substrate and by the measuring of the release of p-nitroaniline at 410 nm [James et al., Biochemistry, 35:9090-9096].

| Compound | IC50 |
| --- | --- |
| CN(CCN(Cc1cc(=O)oc2c(O)c(O)ccc12)c1ccccc1)c1ccccc1 [4,4'-(Ethane-1,2-diylbis(phenylazanediyl))bis(methylene)bis(6,7-dihydroxy-2H-chromen-2-one) (7)] | 125 nM |
| CN(CCN(Cc1cc(=O)oc2cc(O)c(O)cc12)c1ccccc1)c1ccccc1 [4,4'-(Ethane-1,2-diylbis(phenylazanediyl))bis(methylene)bis(7,8-dihydroxy-2H-chromen-2-one) (3)] | 127 nM |
| C[C@H]1[C@H](C)CC[C@]2(C(=O)O)CC[C@]3(C)C(=CC[C@@H]4[C@@]5(C)CC[C@H](O)C(C)(C)[C@@H]5CC[C@]43C)[C@H]12 [3beta-hydroxyurs-12-en-28-oic acid] | 416 nM |

Reference: BindingDB's records for doi:10.3109/14756366.2012.692086 (Giresun University, 2013)
